Results from ChEMBL document CHEMBL1201862, “PubChem BioAssay data set” (2004).
Calls of active or inactive are those of the source.

Tests used:
Format in all cases: functional
[1] = target: T1, Heat shock factor protein 1 (Mus musculus, UniProt P38532); experiment: HSF1 potentiators in luciferase reporter cells, confirmation, cell-based, NIH3T3, luminescence, dose retest (AID 435004);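 note: stress induced by proteasome inhibitor MG132 added 30 min after compound; luciferase reporter driven by HSF1 response element in NIH3T3 cells; actives raise luminescence as potentiators of the MG132 stress response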
T1 sequence (P38532 whole entry): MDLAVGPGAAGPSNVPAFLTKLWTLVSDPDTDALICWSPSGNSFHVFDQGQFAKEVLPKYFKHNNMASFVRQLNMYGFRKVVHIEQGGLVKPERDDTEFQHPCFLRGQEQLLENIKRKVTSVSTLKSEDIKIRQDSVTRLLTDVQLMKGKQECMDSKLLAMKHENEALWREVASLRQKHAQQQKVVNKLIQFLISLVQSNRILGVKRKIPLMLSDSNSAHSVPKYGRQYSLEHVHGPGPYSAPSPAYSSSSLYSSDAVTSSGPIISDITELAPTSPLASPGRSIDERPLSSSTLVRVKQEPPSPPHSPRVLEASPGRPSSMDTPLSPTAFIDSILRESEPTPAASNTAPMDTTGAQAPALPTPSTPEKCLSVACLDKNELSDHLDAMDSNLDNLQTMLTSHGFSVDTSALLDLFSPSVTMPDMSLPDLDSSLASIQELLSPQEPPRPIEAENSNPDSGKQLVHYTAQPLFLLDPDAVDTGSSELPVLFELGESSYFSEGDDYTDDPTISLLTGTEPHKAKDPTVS

cells = experiment: cells
[2] = THP-1 cell cytotoxicity, dose response, cytotoxicity control for non-replicating M. tuberculosis project (AID 489025)
[3] = target: Lysine-specific demethylase 4C (Homo sapiens, UniProt Q9H3R0); experiment: GASC-1 (JMJD2C) histone demethylase inhibitors, dose response, biochemical, DELFIA europium, cherry-picked samples (AID 488835)
Lysine-specific demethylase 4C, sequence (Q9H3R0 whole entry): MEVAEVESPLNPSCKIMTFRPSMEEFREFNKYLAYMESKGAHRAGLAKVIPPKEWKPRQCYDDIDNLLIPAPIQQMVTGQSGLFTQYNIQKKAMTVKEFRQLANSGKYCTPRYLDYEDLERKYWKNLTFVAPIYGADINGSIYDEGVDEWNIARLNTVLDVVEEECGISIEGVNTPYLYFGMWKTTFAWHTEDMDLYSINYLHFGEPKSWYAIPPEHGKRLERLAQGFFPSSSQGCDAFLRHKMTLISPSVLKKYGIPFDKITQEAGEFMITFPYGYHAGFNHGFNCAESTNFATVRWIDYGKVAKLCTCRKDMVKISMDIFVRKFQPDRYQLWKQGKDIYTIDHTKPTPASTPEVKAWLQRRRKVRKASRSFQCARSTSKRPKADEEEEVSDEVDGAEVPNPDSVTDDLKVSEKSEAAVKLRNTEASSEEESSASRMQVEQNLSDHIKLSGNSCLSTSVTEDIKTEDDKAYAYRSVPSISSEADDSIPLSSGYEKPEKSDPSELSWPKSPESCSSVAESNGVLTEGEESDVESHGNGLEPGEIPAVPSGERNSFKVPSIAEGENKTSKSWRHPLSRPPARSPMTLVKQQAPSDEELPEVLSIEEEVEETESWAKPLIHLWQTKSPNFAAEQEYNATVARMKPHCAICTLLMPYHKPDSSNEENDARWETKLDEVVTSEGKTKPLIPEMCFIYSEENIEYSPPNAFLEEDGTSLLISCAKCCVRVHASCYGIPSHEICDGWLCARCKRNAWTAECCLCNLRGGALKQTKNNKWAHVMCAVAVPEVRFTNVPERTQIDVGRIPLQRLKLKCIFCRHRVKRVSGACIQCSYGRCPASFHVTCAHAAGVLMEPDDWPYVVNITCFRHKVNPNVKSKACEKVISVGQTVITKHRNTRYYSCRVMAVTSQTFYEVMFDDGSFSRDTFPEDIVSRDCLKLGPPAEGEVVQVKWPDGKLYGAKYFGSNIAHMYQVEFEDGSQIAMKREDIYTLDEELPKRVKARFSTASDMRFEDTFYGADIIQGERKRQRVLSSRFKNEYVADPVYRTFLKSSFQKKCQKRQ

Hexokinase-1 = target: T2, Hexokinase-1 (Homo sapiens, UniProt P19367); experiment: hexokinase 1 activators, dose response, selectivity assay for HKDC1 activator project, biochemical (AID 504762)
T2 sequence (P19367 whole entry): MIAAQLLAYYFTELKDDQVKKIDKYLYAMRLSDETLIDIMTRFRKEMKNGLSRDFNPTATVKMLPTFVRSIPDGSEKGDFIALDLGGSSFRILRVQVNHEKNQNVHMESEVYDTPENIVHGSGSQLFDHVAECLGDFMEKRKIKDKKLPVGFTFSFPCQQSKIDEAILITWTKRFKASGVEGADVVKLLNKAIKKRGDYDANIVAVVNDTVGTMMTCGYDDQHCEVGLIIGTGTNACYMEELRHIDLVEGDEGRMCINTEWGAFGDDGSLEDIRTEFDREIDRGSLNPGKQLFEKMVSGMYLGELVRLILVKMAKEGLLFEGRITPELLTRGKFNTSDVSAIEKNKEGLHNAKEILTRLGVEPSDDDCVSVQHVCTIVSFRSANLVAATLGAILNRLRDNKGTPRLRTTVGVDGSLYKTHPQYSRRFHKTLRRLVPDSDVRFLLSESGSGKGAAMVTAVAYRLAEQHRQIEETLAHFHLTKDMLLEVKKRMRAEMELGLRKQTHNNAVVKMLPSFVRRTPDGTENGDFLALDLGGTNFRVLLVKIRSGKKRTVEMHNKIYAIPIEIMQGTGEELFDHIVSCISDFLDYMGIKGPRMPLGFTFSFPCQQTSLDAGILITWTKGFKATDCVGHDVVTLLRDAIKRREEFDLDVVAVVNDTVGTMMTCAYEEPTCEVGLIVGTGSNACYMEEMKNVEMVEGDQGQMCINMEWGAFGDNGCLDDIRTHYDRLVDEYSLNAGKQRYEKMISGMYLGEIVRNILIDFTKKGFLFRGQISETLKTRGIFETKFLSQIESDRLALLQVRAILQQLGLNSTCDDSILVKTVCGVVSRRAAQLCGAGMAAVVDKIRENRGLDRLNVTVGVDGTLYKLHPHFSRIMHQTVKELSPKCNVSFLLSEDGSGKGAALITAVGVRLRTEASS

[4] = cytotoxicity toward NIH3T3 fibroblasts, dose response, counter-screen, cell-based, ATP luminescence, mouse fibroblasts (AID 2010);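 note: cells exposed to compound for about 90 hours before reading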

In the case of `Clc1ccc(/N=c2\ssnc2Cl)nc1`, the EC50 [1] is reported as 16 µM (active), the IC50 (cells) is reported as 32.9 µM (active) and the CC50 [2] is reported as 17.5 µM (active). For the same compound, the AC50 [3] was 0.669 µM (active), the EC50 (Hexokinase-1) was 65.4 µM (inactive) and the EC50 [4] was > 60 µM (not active).
